Counter-ions that a name gives are not always drawn.
What was measured:
[1] = tested on: HT-29 cell derived from human large intestine cancer; experiment: Tumor growth in nude mouse inoculated subcutaneously with HT-29 cells; format: in vivo
Procedure: A HT-29 cell was inoculated subcutaneously into a mouse, and the transition of the size of the tumor lump was measured with time from the day on which the tumor has grown to a certain size, when each of COM-JP and 5-FU was used alone or in combination.

[2] = tested on: KO99L cells (tPTEN−/− tumor cell line); experiment: WST-1 cell viability assay on KO99L cells; format: cell-based, murine; conditions: Mus musculus, KO99L cells, 48 h
Procedure: Two different assays were employed: i) In a 96-well plate format, cells (4.0±0.1×10^4 per well; 100 μL) were incubated with effectors (48 h, 37° C.; n=4 per experiment) and then WST-1 reagent (10 μL; Roche Diagnostics) added to each well of 96-well plates, incubated, and the formazan production was measured at 490 nm; and ii) cells (2.0±0.1×10^4 per well; 100 μL) were incubated with effectors (48 h, 37° C.; n=4 per experiment) and then bromodeoxyuridine reagent (10 μL/well; Roche Diagnostics) was added to each well and incubated (8 h, 37° C.). The cells were then fixed, denatured and incubated with anti-BrdU-conjugated with peroxidase (POD) antibody (100 μL/well). Colorimetric substrate (TMB: tetramethyl-benzidine; 100 μL/well) was added and BrdU incorporation quantified via optical density measurement (450 nm) which corresponds to DNA synthesis and proliferating cells.

[3] = tested on: HT-29 cell derived from human large intestine cancer; experiment: Tumor growth in nude mouse SOI model (HT-29 grafted onto wall of large intestine); format: in vivo
Text: […] was expressed in a HT-29 cell derived from human large intestine cancer, and which was grafted onto the wall of large intestine of a mouse to produce a metamouse. According to this, the quantity of the size of the tumor could be determined with time with emission intensity. In FIG. 16, the size of tumor in each treatment group was shown with a bar graph. Group 1 is a control group, Groups 2 to 4 are a group in which COM-JP was intraperitoneally administered alone at 3.1, 12.5, and 50 mg/kg weight/day every day for 4 weeks, Group 5 is a group in which CDDP was intraperitoneally administered alone at 2.5 mg/kg/day three times on day 0, day 6, and day 13, Groups 6 to 8 are a group in which Groups 2 to 4 and Group 5 were combined to be administered in combination, and Group 9 is a group in which COM-JP was orally administered at 300 mg/kg/day every day for 4 weeks.

mTORC1 / Akt activation = experiment: Western blot of S6RP, 4EBP1 and Akt phosphorylation, KO99L cells; format: cell-based, murine; conditions: 2.0-24 h; COMPOUND-JP 10.0 μM; MK-2206 5.0 μM; KU0063794 5.0 μM; rapamycin 10.0 nM; L-Asp, Erw 2.5 units/ml; velcade at 24 h
KO99L cells [4] = experiment: Combination studies with COMPOUND-JP, WST-1 viability, Chou-Talalay combination index; format: cell-based, murine; conditions: 48 h, suboptimal concentrations, in combination with COMPOUND-JP
Procedure: Combinations were analyzed by ANOVA followed by Tukey's Multiple comparison test to determine significance between experimental groups. The synergism between drugs was analyzed using the Chou-Talalay method. […] P-value <0.05 was accepted as statistically significant (*:p<0.05; **:p<0.01; ***:p<0.001). Analyses were performed using the GraphPAd Prism 3.0 software.

c-myc = experiment: Western blot of c-myc levels, KO99L cells; format: cell-based, murine; conditions: COMPOUND-JP 10.0 μM 2.0-24 h; Velcade 8 nM 24 h; KU0063794 10.0 μM; MK-2206 10.0 μM; rapamycin 100 nM
Procedure: (§1) Cell extracts were prepared using a cell lysis buffer (50 mM HEPES, pH 7.4, 150 mM NaCl, 20 mM EDTA, 100 mM NaF, 10 mM Na3VO4, 0.5% nonyl phenoxypolyethoxylethanol (NP40) supplemented with a cocktail of protease inhibitors. After SDS-PAGE separation and transfer to nitrocellulose immunoblotting was performed using the following antibodies against: Akt (Cell Signaling Technologies, #9272), CHOP (#2895), cleaved caspase 3 (#9664), c-Myc (#9402), eIF2a (#9721), 4EBP1 (#9644), LC3A/B (#12741), PARP (#9542), pJnk (T183/Y185) (#9251), pSer235-236-S6RP (#4856), pSer473-Akt (#9271), pSer65-4EBP1 (#9451) and S6RP (#2217); Bax (Sigma-Aldrich, B8429); PUMA (Abcam, ab54288); Bak (Millipore, 06536); ATF4 (Santa Cruz Biotechnologies, sc200), GADD34 (sc8327), Hsp60 (sc-1722), Hsp90 (sc-13119) and XBP1 (sc-7160); ATF6 (Imgenex, IMG-273).

CHOP = experiment: Western blot of CHOP protein levels, KO99L cells; format: cell-based, murine; conditions: for CHOP induction: FIG. 5B, COMPOUND-JP 5.0 and 10.0 μM, L-Asp 2.5 units/ml, rapamycin 10.0 nM, MK-2206 10.0 μM, KU0063794 10.0 μM; for CHOP expression, time course: FIG. 5A, COMPOUND-JP 10.0 μM, L-Asp, Erw 2.5 units/ml, 2.0-24 h
Procedure: as §1

KO99L cells [5] = experiment: Annexin-V / DAPI apoptosis assay, KO99L cells; format: cell-based, murine; conditions: 20.0 μM
Procedure: Apoptosis assessment was performed by measuring phosphatidyl-serine membrane redistribution via annexin-V-FITC (Invitrogen). Cells (5.0±0.1×10^5 per well; 2.0 mL) were incubated with effectors, and re-suspended in staining solution (110 μL; Annexin-V ( 1/10) and incubated in the dark (15 min, RT). […] Basal apoptosis and necrosis were determined on control untreated cells.

[6] = tested on: 44As3-11 cell derived from human scirrhous stomach cancer; experiment: MTT, single agents and combination with COM-JP, 44As3-11 cells; format: cell-based
Procedure: (§2) Two kind of cancer cells of a 44As3-11 cell derived from human scirrhous stomach cancer and a Panc-1 cell derived from human pancreatic cancer were cultured in the presence or absence of COM-JP, to which GEM and Pac was added on day 2, and the resultant mixture was continued to be cultured for 2 hours. Subsequently, the medium was replaced with a new medium, and the culture was performed in the presence or absence of COM-JP for 2 days more. Finally, the cells were collected, and the quantity of survival activity of the cells was determined by a MTT method. In each experiment, three cases of the group under the same conditions were measured, and the average value and the standard error, and the p-value of significance test were shown in the diagram.

[7] = tested on: Panc-1 cell derived from human pancreatic cancer; experiment: MTT, single agents and combination with COM-JP, Panc-1 cells; format: cell-based
Procedure: as §2

O=c1[nH]cc(F)c(=O)[nH]1 [5-FU, 5-fluorouracil]
combined effect with COM-JP on tumor growth ([1]; COM-JP and 5-FU in combination): additive
increase of the tumor, single administration ([1]; compared with untreated control group): more significant decrease

NC1(C(=O)O)CC2CCC1C2 (centres unmarked) [BCH, 2-Aminobicyclo-(2,2,1)-heptane-2-carboxylic acid, reference compound]
viability at 10000 µM ([2]; 10.0 mM): 30%

[NH2][Pt]([NH2])([Cl])[Cl] [CDDP, cisplatin, reference compound]
efficacy on tumor growth, single administration ([3]; COM-JP i.p. 3.1, 12.5, 50 mg/kg/day 4 weeks, CDDP i.p. 2.5 mg/kg/day day 0, 6, 13): not recognized
efficacy of combination with COM-JP on tumor growth ([3]; Group 8: COM-JP 50 mg/kg/day i.p. plus CDDP 2.5 mg/kg/day): synergistic effect

CC(C)C[C@@H](N)C(=O)O [D-Leucine, D-leucine, reference compound]
viability at 30000 µM ([2]; 30.0 mM): 60%

COc1ccc(-c2ccc3c(N4CCOCC4)nc(N4C[C@@H](C)O[C@@H](C)C4)nc3n2)cc1CO [KU0063794, rel-5-[2-[(2R,6S)-2,6-dimethyl-4-morpholinyl]-4-(4-morpholinyl)pyrido[2,3-d]pyrimidin-7-yl]-2-methoxybenzenemethanol, reference compound]
4EBP1 phosphorylation (mTORC1 / Akt activation): completely block
Akt phosphorylation (serine 473) / activation (mTORC1 / Akt activation): completely block
S6RP phosphorylation (mTORC1 activation) (mTORC1 / Akt activation): completely block
combination effect with COMPOUND-JP on metabolic activity/cell survival (Combination Index) (KO99L cells [4]): less efficient
c-myc protein level (c-myc): slightly influenced the two lower bands
CHOP induction (CHOP): did not result in CHOP induction

NC1(c2ccc(-c3nc4ccn5c(=O)[nH]nc5c4cc3-c3ccccc3)cc2)CCC1 [MK-2206, reference compound]
4EBP1 phosphorylation (mTORC1 / Akt activation): completely block
Akt phosphorylation (serine 473) / activation (mTORC1 / Akt activation): completely block
S6RP phosphorylation (mTORC1 activation) (mTORC1 / Akt activation): completely block
c-myc protein level (c-myc): dramatic disappearance of all three c-myc isoforms
CHOP induction (CHOP): did not result in CHOP induction

CC(C)[C@H](NC(=O)c1ccc2ccccc2n1)C(=O)N[C@@H](CC(=O)O)C(=O)COc1c(F)cccc1F [QvD-OPH, reference compound]
quantity of apoptotic cells when co-administered with COMPOUND-JP (KO99L cells [5]): markedly decreased the quantity of apoptotic cells

COc1cccc2c1C(=O)c1c(O)c3c(c(O)c1C2=O)C[C@@](O)(C(=O)CO)C[C@@H]3O[C@H]1C[C@H](N)[C@H](O)[C@H](C)O1 [doxorubicin, doxorubicin hydrochloride]
combination effect with COMPOUND-JP on metabolic activity/cell survival (Combination Index) (KO99L cells [4]): synergy

Nc1ccn([C@@H]2O[C@H](CO)[C@@H](O)C2(F)F)c(=O)n1 [gemstabine, gemcitabine]
inhibitory effect of combination with COM-JP (15 μM) [6]: additive effect
proliferation activity, agent used alone for 2 hours [6]: decreased in a dose-dependent manner
inhibitory effect of combination with COM-JP (15 μM) [7]: additive effect
proliferation activity, agent used alone for 2 hours [7]: decreased in a dose-dependent manner
relative inhibitory effect of single agents [7]: extremely small

CC(=O)O[C@H]1C(=O)[C@@]2(C)[C@H]([C@H](OC(=O)c3ccccc3)[C@]3(O)C[C@H](OC(=O)[C@H](O)[C@@H](NC(=O)c4ccccc4)c4ccccc4)C(C)=C1C3(C)C)[C@]1(OC(C)=O)CO[C@@H]1C[C@@H]2O [paclitaxel]
inhibitory effect of combination with COM-JP (15 μM) [6]: additive effect
proliferation activity, agent used alone for 2 hours [6]: decreased in a dose-dependent manner
relative inhibitory effect of single agents [6]: stronger than that of gemstabine
inhibitory effect of combination with COM-JP (15 μM) [7]: additive effect
proliferation activity, agent used alone for 2 hours [7]: decreased in a dose-dependent manner
relative inhibitory effect of single agents [7]: stronger than that of gemstabine

CC(C)C[C@H](NC(=O)[C@H](Cc1ccccc1)NC(=O)c1cnccn1)B(O)O [velcade, bortezomib, reference compound]
4EBP1 phosphorylation (mTORC1 / Akt activation): completely abolished
Akt phosphorylation (serine 473) / activation (mTORC1 / Akt activation): completely abolished
S6RP phosphorylation (mTORC1 activation) (mTORC1 / Akt activation): completely abolished
c-myc protein level (c-myc): Analogous observations
CHOP induction (CHOP): strongly induced

B1: L-Asp: enzyme that can degrade extracellular asparagine and also possesses glutaminase activity (protein, UniProt P00805 23-348, looked up)
L-asparaginase 2: LPNITILATGGTIAGGGDSATKSNYTVGKVGVENLVNAVPQLKDIANVKGEQVVNIGSQDMNDNVWLTLAKKINTDCDKTDGFVITHGTDTMEETAYFLDLTVKCDKPVVMVGAMRPSTSMSADGPFNLYNAVVTAADKASANRGVLVVMNDTVLDGRDVTKTNTTDVATFKSVNYGPLGYIHNGKIDYQRTPARKHTSDTPFDVSKLNELPKVGIVYNYANASDLPAKALVDAGYDGIVSAGVGNGNLYKSVFDTLATAAKTGTAVVRSSRVPTGATTQDAEVDDAKYGFVASGTLNPQKARVLLQLALTQTKDPQQIQQIFNQY
4EBP1 phosphorylation (mTORC1 / Akt activation): altered 4EBP1 phosphorylation
Akt phosphorylation (serine 473) / activation (mTORC1 / Akt activation): did not significantly influence Akt phosphorylation
S6RP phosphorylation (mTORC1 activation) (mTORC1 / Akt activation): altered S6RP phosphorylation
combination effect with COMPOUND-JP on metabolic activity/cell survival (Combination Index) (KO99L cells [4]): potentiate
CHOP expression, time course (CHOP): lower magnitude compared to COMPOUND-JP

B2: Erw: enzyme that can degrade extracellular asparagine, with higher glutaminase activity (protein, UniProt P06608 22-348, looked up)
L-asparaginase: ADKLPNIVILATGGTIAGSAATGTQTTGYKAGALGVDTLINAVPEVKKLANVKGEQFSNMASENMTGDVVLKLSQRVNELLARDDVDGVVITHGTDTVEESAYFLHLTVKSDKPVVFVAAMRPATAISADGPMNLLEAVRVAGDKQSRGRGVMVVLNDRIGSARYITKTNASTLDTFKANEEGYLGVIIGNRIYYQNRIDKLHTTRSVFDVRGLTSLPKVDILYGYQDDPEYLYDAAIQHGVKGIVYAGMGAGSVSVRGIAGMRKAMEKGVVVIRSTRTGNGIVPPDEELPGLVSDSLNPAHARILLMLALTRTSDPKVIQEYFHTY
4EBP1 phosphorylation (mTORC1 / Akt activation): altered 4EBP1 phosphorylation
Akt phosphorylation (serine 473) / activation (mTORC1 / Akt activation): did not significantly influence Akt phosphorylation
S6RP phosphorylation (mTORC1 activation) (mTORC1 / Akt activation): altered S6RP phosphorylation
CHOP expression, time course (CHOP): induced a transient response
